pIC50: −log10 of the molar value. Where two headings read alike, the source gives them in different places.
Columns and labels:
Assay type in all cases: cell-based
[1] = test system: HIV-1 integrase mutant virus Y143R; experiment: Single cycle infectivity assay in HeLa P4-2 cells, integrase mutant Y143R virus; conditions: fold shift in IC50 versus wild type IIIB
Procedure: (§1) An assay for measuring the inhibition of acute HIV-1 infection with HeLa P4-2 cells in a single cycle infectivity assay was conducted using methods described in Joyce et al., J. Biol. Chem. 2002, 277: 45811, Hazuda et al., Science 2000, 287: 646, and Kimpton et al, J. Virol. 1992, 66: 2232. Proviral plasmids encoding viruses containing specific mutations in the integrase gene (N155H, Q148R, Y143R, E92Q, or G140S/Q148H) were generated by site-directed mutagenesis, and viruses were produced by transfecting 293T cells with the appropriate proviral plasmids.

[2] = test system: HIV-1 wild type IIIB; experiment: Single cycle infectivity assay in HeLa P4-2 cells, wild type virus
Procedure: as §1

[3] = test system: HIV-1 integrase mutant virus G140S/Q148H; experiment: Single cycle infectivity assay in HeLa P4-2 cells, integrase mutant G140S/Q148H virus; conditions: fold shift in IC50 versus wild type IIIB
Procedure: as §1

[4] = test system: HIV-1; experiment: Inhibition of acute HIV-1 infection of T-lymphoid cells (spread assay); conditions: 10% FBS, read-out: IC95 (nM) in the presence of 10% FBS
Procedure: Assays for the inhibition of acute HIV-1 infection of T-lymphoid cells were conducted in accordance with Vacca, J. P. et al., Proc. Natl. Acad. Sci. USA 1994, 91: 4096.

[5] = test system: HIV-1 integrase mutant virus Q148R; experiment: Single cycle infectivity assay in HeLa P4-2 cells, integrase mutant Q148R virus; conditions: fold shift in IC50 versus wild type IIIB
Procedure: as §1

[6] = test system: HIV-1 integrase mutant virus N155H; experiment: Single cycle infectivity assay in HeLa P4-2 cells, integrase mutant N155H virus; conditions: fold shift in IC50 versus wild type IIIB
Procedure: as §1

Compound | Y143R (shift) [1] [fold] | pIC50 ([2]; Human immunodeficiency virus 1, IIIB, HeLaP4-2, wild type IIIB) | G140S/Q148H (shift) [3] [fold] | IC95 ([4]; Human immunodeficiency virus 1, T-lymphoid) [nM] | Q148R (shift) [5] [fold] | N155H (shift) [6] [fold] | pIC50 ([2]; wild type IIIB) | IC95 [4] [nM]
CCN(C(=O)C(=O)N(C)C)C12CCC(Cn3c1nc(C(=O)NCc1ccc(F)c(C)c1)c(O)c3=O)OC2 (stereo not drawn) [Example 18A, N-ethyl-N-(4-{[(4-fluoro-3-methylbenzyl)amino]carbonyl}-5-hydroxy-6-oxo-10-oxa-3,7-diazatricyclo[7.2.2.0^2,7]trideca-2,4-dien-1-yl)-N,N-dimethylethanediamide] | 2 | 7.72 | >88 | 9.8 | 7 | 8 | – | –
CN(C)C(=O)C(=O)N(C)C12CCC(Cn3c1nc(C(=O)NCc1ccc(F)cc1)c(O)c3=O)OC2 (single isomer, unassigned) [Example 23B] | 7 | – | 229 | – | 253 | 136 | 8.30 | 23.6
CCC1C2CCC(NC(=O)C(=O)N(C)C)(CO2)c2nc(C(=O)NCc3ccc(F)cc3)c(O)c(=O)n21 (single isomer, unassigned) [Example 26C, N′-(8-ethyl-4-{[(4-fluorobenzyl)amino]carbonyl}-5-hydroxy-6-oxo-10-oxa-3,7-diazatricyclo[7.2.2.0^2,7]trideca-2,4-dien-1-yl)-N-dimethylethanediamide] | 2 | – | 26 | – | 9 | 12 | 7.64 | 18.1
CN(C)C(=O)C(=O)N(C)C12CCC(C)(Cn3c1nc(C(=O)NCc1ccc(F)cc1)c(O)c3=O)OC2 (single isomer, unassigned) [Example 21B] | 3 | – | >93 | – | 11 | 13 | 7.74 | 21.0
CCC1C2CCC(NC(=O)C(=O)N(C)C)(CO2)c2nc(C(=O)NCc3ccc(F)cc3)c(O)c(=O)n21 (single isomer, unassigned) [Example 26D, N′-(8-ethyl-4-{[(4-fluorobenzyl)amino]carbonyl}-5-hydroxy-6-oxo-10-oxa-3,7-diazatricyclo[7.2.2.0^2,7]trideca-2,4-dien-1-yl)-N-dimethylethanediamide] | 2 | – | 1 | – | 1 | 1 | 7.80 | 5.1
CC1C2CCC(N(C)C(=O)C(=O)N(C)C)(CO2)c2nc(C(=O)NCc3ccc(F)cc3)c(O)c(=O)n21 (single isomer, unassigned) [Example 27C, N-(4-{[(4-fluorobenzyl)amino]carbonyl}-5-hydroxy-8-methyl-6-oxo-10-oxa-3,7-diazatricyclo[7.2.2.0^2,7]trideca-2,4-dien-1-yl)-N,N′,N′-trimethylethanediamide] | 3 | – | >111 | – | 12 | 11 | 7.82 | 7.7
CC1C2CCC(NC(=O)C(=O)N(C)C)(CO2)c2nc(C(=O)NCc3ccc(F)cc3)c(O)c(=O)n21 (single isomer, unassigned) [Example 29A, N′-(4-{[(4-Fluorobenzyl)amino]carbonyl}-5-hydroxy-8-methyl-6-oxo-10-oxa-3,7-diazatricyclo[7.2.2.0^2,7]trideca-2,4-dien-1-yl)-N-dimethylethanediamide] | 1 | – | 4 | – | 1 | 1 | 7.70 | 17.9
